Source: US8802597B2, “Herbicidal pyrimidines” (E I du Pont de Nemours and Company, priority 2003, dated 2014)

What was measured:
Experiment in all cases: Test C pre/postemergence
Assay type in all cases: in vivo
[1] = test system: bermudagrass (Cynodon dactylon); settings: for Bermudagrass plant response rating: scale 0 to 100 (0 no effect, 100 complete control)
Excerpt: (§1) Seeds or nutlets of plant species selected from bermudagrass (Cynodon dactylon), Surinam grass (Brachiaria decumbens), cocklebur (Xanthium strumarium), corn (Zea mays), crabgrass (Digitaria sanguinalis), woolly cupgrass (Eriochloa villosa), giant foxtail (Setaria faberii), goosegrass (Eleusine indica), johnsongrass (Sorghum halepense), kochia (Kochia scoparia), lambsquarters (Chenopodium album), morningglory (Ipomoea coccinea), eastern black nightshade (Solanum ptycanthum), yellow nutsedge (Cyperus esculentus), pigweed (Amaranthus retroflexus), common ragweed (Ambrosia elatior), soybean (Glycine max), common (oilseed) sunflower (Helianthus annuus), and velvetleaf (Abutilon theophrasti) were planted and treated preemergence with test chemicals formulated in a non-phytotoxic solvent mixture which included a surfactant.
(§2) At the same time, plants selected from these crop and weed species and also winter barley (Hordeum vulgare), blackgrass (Alopecurus myosuroides), canarygrass (Phalaris minor), chickweed (Stellaria media), downy brome (Bromus tectorum), green foxtail (Setaria viridis), Italian ryegrass (Lolium multiflorum), wheat (Triticum aestivum), wild oat (Avena fatua) and windgrass (Apera spica-venti) were treated with postemergence applications of some of the test chemicals formulated in the same manner. Plants ranged in height from 2 to 18 cm (1- to 4-leaf stage) for postemergence treatments. Plant species in the flooded paddy test consisted of rice (Oryza sativa), umbrella sedge (Cyperus difformis), duck salad (Heteranthera limosa) and barnyardgrass (Echinochloa crus-galli) grown to the 2-leaf stage for testing. Treated plants and controls were maintained in a greenhouse for 12 to 14 days, after which time all species were compared to controls and visually evaluated. Plant response ratings, summarized in Table C, are based on a scale of 0 to 100 where 0 is no effect and 100 is complete control. A dash (-) response means no test result.

[2] = test system: giant foxtail (Setaria faberii); settings: for Foxtail, Giant plant response rating: scale 0 to 100 (0 no effect, 100 complete control)
Excerpt: as §1, §2

[3] = test system: johnsongrass (Sorghum halepense); settings: for Johnsongrass plant response rating: scale 0 to 100 (0 no effect, 100 complete control)
Excerpt: as §1, §2

soybean (Glycine max) = settings: for Soybean plant response rating: scale 0 to 100 (0 no effect, 100 complete control)
Excerpt: as §1, §2

[4] = Postemergence, 250 g ai/ha, scale 0 to 100
[5] = Postemergence, 125 g ai/ha, scale 0 to 100
[6] = Preemergence, 31 g ai/ha, scale 0 to 100, 0 no effect, 100 complete control
[7] = Preemergence, 62 g ai/ha, scale 0 to 100, 0 no effect, 100 complete control
[8] = Preemergence, 125 g ai/ha, scale 0 to 100
[9] = Preemergence, 250 g ai/ha, scale 0 to 100
[10] = Postemergence, 500 g ai/ha, scale 0 to 100
[11] = Preemergence, 500 g ai/ha, scale 0 to 100
[12] = Preemergence, 16 g ai/ha, scale 0 to 100, 0 no effect, 100 complete control

Compound	Bermudagrass plant response rating ([1]; Postemergence, 62 g ai/ha)	Plant response rating, Bermudagrass [1, 4]	Plant response rating, Bermudagrass [1, 6]	Plant response rating, Bermudagrass [1, 7]	Plant response rating, Bermudagrass [1, 8]	Plant response rating, Bermudagrass [1, 9]	Foxtail, Giant plant response rating ([2]; Postemergence, 62 g ai/ha)	Foxtail, Giant plant response rating ([2]; Postemergence, 125 g ai/ha)	Plant response rating, Foxtail, Giant [2, 4]	Plant response rating, Foxtail, Giant [2, 6]	Plant response rating, Foxtail, Giant [2, 7]	Plant response rating, Foxtail, Giant [2, 8]	Plant response rating, Foxtail, Giant [2, 9]	Johnsongrass plant response rating ([3]; Postemergence, 62 g ai/ha)	Plant response rating, Johnsongrass [3, 7]	Plant response rating, Johnsongrass [3, 8]	Soybean plant response rating (soybean (Glycine max); Postemergence, 62 g ai/ha)	Soybean plant response rating (soybean (Glycine max); Postemergence, 125 g ai/ha)	Plant response rating, Soybean (soybean (Glycine max); [7])	Plant response rating, Soybean (soybean (Glycine max); [8])	also measured
CC(C)COC(=O)c1nc(C2CC2)nc(N)c1Br [Compound 17]	0	0	0	0	0	0	0	0	35	0	0	20	75	0	0	55	95	100	90	95	Plant response rating (scale of 0 to 100), Bermudagrass ([1]; Postemergence, 31 g ai/ha): 0; Plant response rating, Bermudagrass [1, 5]: 0; Plant response rating (scale of 0 to 100), Foxtail, Giant ([2]; Postemergence, 31 g ai/ha): 0; Plant response rating (scale of 0 to 100), Johnsongrass ([3]; Postemergence, 31 g ai/ha): 0; Johnsongrass plant response rating ([3]; Postemergence, 125 g ai/ha): 40; Plant response rating, Johnsongrass [3, 4]: 60; Plant response rating, Johnsongrass [3, 6]: 0; Plant response rating, Johnsongrass [3, 9]: 75; Plant response rating (scale of 0 to 100), Soybean (soybean (Glycine max); Postemergence, 31 g ai/ha): 85; Plant response rating, Soybean (soybean (Glycine max); [4]): 100; Plant response rating, Soybean (soybean (Glycine max); [6]): 70; Plant response rating, Soybean (soybean (Glycine max); [9]): 100
CCOC(=O)c1nc(-c2ccc(Cl)cc2)nc(N)c1Br [Compound 37]	0	0	–	–	–	–	0	0	40	–	–	–	–	0	–	–	20	85	–	–	Bermudagrass plant response rating ([1]; Postemergence, 125 g ai/ha): 0; Plant response rating, Bermudagrass [1, 10]: 20; Plant response rating, Foxtail, Giant [2, 10]: 45; Johnsongrass plant response rating ([3]; Postemergence, 125 g ai/ha): 20; Plant response rating, Johnsongrass [3, 10]: 55; Plant response rating, Soybean (soybean (Glycine max); [4]): 95; Plant response rating, Soybean (soybean (Glycine max); [10]): 100
CN(C)N=Cc1nc(C2CC2)nc(N)c1Br [Compound 50]	50	90	–	–	0	0	0	0	0	–	0	0	0	0	0	55	95	95	0	60	Bermudagrass plant response rating ([1]; Postemergence, 125 g ai/ha): 75; Plant response rating, Bermudagrass [1, 10]: 95; Plant response rating, Bermudagrass [1, 11]: 95; Plant response rating, Foxtail, Giant [2, 10]: 20; Plant response rating, Foxtail, Giant [2, 11]: 70; Plant response rating, Johnsongrass [3, 10]: 60; Plant response rating, Johnsongrass [3, 9]: 65; Plant response rating, Johnsongrass [3, 11]: 85; Plant response rating, Soybean (soybean (Glycine max); [4]): 100; Plant response rating, Soybean (soybean (Glycine max); [10]): 100; Plant response rating, Soybean (soybean (Glycine max); [9]): 75; Plant response rating, Soybean (soybean (Glycine max); [11]): 90
COC(=O)Cc1nc(C2CC2)nc(N)c1Br [Compound 13]	–	–	0	0	0	0	–	–	–	0	0	0	5	–	0	5	–	–	60	90	Plant response rating, Johnsongrass [3, 6]: 0; Plant response rating, Johnsongrass [3, 9]: 45; Plant response rating, Soybean (soybean (Glycine max); [6]): 0; Plant response rating, Soybean (soybean (Glycine max); [9]): 90
COC(=O)c1nc(C2CC2)nc(N=CN(C)C)c1Br [Compound 19]	30	–	0	0	0	–	40	55	–	0	0	0	–	0	35	55	75	75	85	90	Plant response rating (scale of 0 to 100), Bermudagrass ([1]; Postemergence, 16 g ai/ha): 0; Plant response rating (scale of 0 to 100), Bermudagrass ([1]; Postemergence, 31 g ai/ha): 5; Plant response rating, Bermudagrass [1, 5]: 45; Plant response rating, Bermudagrass [1, 12]: 0; Plant response rating (scale of 0 to 100), Foxtail, Giant ([2]; Postemergence, 16 g ai/ha): 0; Plant response rating (scale of 0 to 100), Foxtail, Giant ([2]; Postemergence, 31 g ai/ha): 5; Plant response rating, Foxtail, Giant [2, 12]: 0; Plant response rating (scale of 0 to 100), Johnsongrass ([3]; Postemergence, 16 g ai/ha): 0; Plant response rating (scale of 0 to 100), Johnsongrass ([3]; Postemergence, 31 g ai/ha): 0; Plant response rating, Johnsongrass [3, 12]: 0; Plant response rating, Johnsongrass [3, 6]: 0; Plant response rating (scale of 0 to 100), Soybean (soybean (Glycine max); Postemergence, 16 g ai/ha): 45; Plant response rating (scale of 0 to 100), Soybean (soybean (Glycine max); Postemergence, 31 g ai/ha): 55; Plant response rating, Soybean (soybean (Glycine max); [12]): 0; Plant response rating, Soybean (soybean (Glycine max); [6]): 25
Nc1nc(C2CC2)nc(C=O)c1Br [Compound 26]	–	–	–	–	–	–	–	–	–	–	–	–	–	–	–	–	–	–	–	–	pest or weed control at 62 g/ha ([1]; Cynodon dactylon, pre-emergence, Preemergence, 62 g ai/ha, scale 0 to 100, 0 no effect, 100 complete control, read-out: Plant response rating, Bermudagrass): 0%; pest or weed control at 125 g/ha ([1]; Cynodon dactylon, pre-emergence, Preemergence, 125 g ai/ha, scale 0 to 100, read-out: Plant response rating, Bermudagrass): 0%; pest or weed control at 250 g/ha ([1]; Cynodon dactylon, pre-emergence, Preemergence, 250 g ai/ha, scale 0 to 100, read-out: Plant response rating, Bermudagrass): 0%; pest or weed control at 500 g/ha ([1]; Cynodon dactylon, pre-emergence, Preemergence, 500 g ai/ha, scale 0 to 100, read-out: Plant response rating, Bermudagrass): 0%; pest or weed control at 62 g/ha ([2]; Setaria faberi, pre-emergence, Preemergence, 62 g ai/ha, scale 0 to 100, 0 no effect, 100 complete control, read-out: Plant response rating, Foxtail, Giant): 0%; pest or weed control at 125 g/ha ([2]; Setaria faberi, pre-emergence, Preemergence, 125 g ai/ha, scale 0 to 100, read-out: Plant response rating, Foxtail, Giant): 0%; pest or weed control at 250 g/ha ([2]; Setaria faberi, pre-emergence, Preemergence, 250 g ai/ha, scale 0 to 100, read-out: Plant response rating, Foxtail, Giant): 0%; pest or weed control at 500 g/ha ([2]; Setaria faberi, pre-emergence, Preemergence, 500 g ai/ha, scale 0 to 100, read-out: Plant response rating, Foxtail, Giant): 10%; pest or weed control at 62 g/ha ([3]; Sorghum halepense, pre-emergence, Preemergence, 62 g ai/ha, scale 0 to 100, 0 no effect, 100 complete control, read-out: Plant response rating, Johnsongrass): 0%; pest or weed control at 250 g/ha ([3]; Sorghum halepense, pre-emergence, Preemergence, 250 g ai/ha, scale 0 to 100, read-out: Plant response rating, Johnsongrass): 0%; pest or weed control at 500 g/ha ([3]; Sorghum halepense, pre-emergence, Preemergence, 500 g ai/ha, scale 0 to 100, read-out: Plant response rating, Johnsongrass): 100%; plant injury at 62 g/ha (soybean (Glycine max); Glycine max, pre-emergence, Preemergence, 62 g ai/ha, scale 0 to 100, 0 no effect, 100 complete control, read-out: Plant response rating, Soybean): 0%; plant injury at 125 g/ha (soybean (Glycine max); Glycine max, pre-emergence, Preemergence, 125 g ai/ha, scale 0 to 100, read-out: Plant response rating, Soybean): 10%; plant injury at 250 g/ha (soybean (Glycine max); Glycine max, pre-emergence, Preemergence, 250 g ai/ha, scale 0 to 100, read-out: Plant response rating, Soybean): 10%; plant injury at 500 g/ha (soybean (Glycine max); Glycine max, pre-emergence, Preemergence, 500 g ai/ha, scale 0 to 100, read-out: Plant response rating, Soybean): 20%
